Assay results from patent publication US20080057113A1, “Pharmaceutical Anti-Herpetic Composition, Method for Producing a Dosage Form Based Thereon and Method for the Use Thereof” (priority 2003, published 2008).

Tested on: herpetic infection
Test: Effectiveness of treating herpetic infection upon incorporation of isoleucine
Assay type: in vivo
Settings: isoleucine incorporated into the composition
Protocol: The effectiveness of treating herpetic infection increases to a considerable extent upon incorporation of isoleucine into the composition, by 10-28% as compared to control. Isoleucine may be contained in the formulation of the preparation in an amount of 0.11-0.22 g per 100 ml of composition.

CC[C@H](C)[C@H](N)C(=O)O [isoleucine]
Increase of effectiveness of treating herpetic infection as compared to control: 10-28%
